By pEC50 is commonly meant the negative decadic logarithm of the EC50, by convention in mol/L. Usually fraction unbound stands for the share of the substance not bound to proteins or other matrix.

This note sets out measurements from ChEMBL document CHEMBL4665775, “Half-life extension of peptidic APJ agonists by N-terminal lipid conjugation” (Bioorg Med Chem Lett, 2020).

pEC50: −log10 of the molar value.

One data set has as its target T1, Apelin receptor (Rattus norvegicus, UniProt Q9JHG3).
T1 sequence (Q9JHG3 whole entry): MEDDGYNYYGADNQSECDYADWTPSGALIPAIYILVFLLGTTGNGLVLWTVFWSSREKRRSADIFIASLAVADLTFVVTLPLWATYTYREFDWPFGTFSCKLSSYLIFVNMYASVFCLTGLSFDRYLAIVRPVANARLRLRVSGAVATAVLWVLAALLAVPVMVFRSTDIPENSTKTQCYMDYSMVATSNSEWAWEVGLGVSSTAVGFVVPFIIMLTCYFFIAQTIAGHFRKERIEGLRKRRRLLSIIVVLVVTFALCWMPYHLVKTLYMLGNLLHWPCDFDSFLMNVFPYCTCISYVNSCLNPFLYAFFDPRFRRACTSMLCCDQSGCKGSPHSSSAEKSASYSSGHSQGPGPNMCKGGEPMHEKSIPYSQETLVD
Put plainly: Agonist activity at rat APJ receptor stably expressed in CHO cell membranes in presence of [35S]GTPgammaS by scintillation proximity assay. It is filed as functional. On the technique in general: GTPγS is a poorly hydrolysed GTP analogue; its binding reports G protein activation.

A short description of data set [1]: Plasma protein binding in rat assessed as unbound fraction by LC-MS/MS analysis. It is filed as ADME, cell-free.
The nature of data set [2]: Stability in rat Kidney S9 fraction assessed as compound remaining at 4 hrs. Type of data set: ADME, subcellular. Conditions: read-out: Stabilty.
Data set [3] in a line: Stability in rat plasma assessed as compound remaining at 4 hrs. Type of data set: ADME, cell-free. Conditions: read-out: Stabilty.

Consider `CCCCCCCCCCCCCCCCCC(=O)N[C@@H](CCC(=O)NCCOCCOCC(=O)NCCOCCOCC(=O)N[C@@H](CCCCNC(=N)N)C(=O)N[C@H](CCCNC(=N)N)C(=O)N[C@@H](CCC(N)=O)C(=O)N[C@@H](CCCCNC(=N)N)C(=O)N1CCC[C@H]1C(=O)N[C@H](CCCNC(=N)N)C(=O)N(C)[C@@H](CC(C)C)C(=O)N[C@@H](CO)C(=O)N[C@@H](Cc1c[nH]cn1)C(=O)N[C@@H](CCCCN)C(=O)NCC(=O)N1[C@H](C(=O)N[C@@H](Cc2ccc(I)cc2)C(=O)N2CCC[C@H]2C(=O)N[C@H](Cc2ccc(-c3ccccc3)cc2)C(=O)O)C[C@@H]2CCCC[C@@H]21)C(=O)O`, for which the pEC50 on Apelin receptor was 8.42. Regarding `CCCCCCCCCCCCCCCC(=O)N[C@@H](CCC(=O)NCCOCCOCC(=O)NCCOCCOCC(=O)N[C@@H](CCCCNC(=N)N)C(=O)N[C@H](CCCNC(=N)N)C(=O)N[C@@H](CCC(N)=O)C(=O)N[C@@H](CCCCNC(=N)N)C(=O)N1CCC[C@H]1C(=O)N[C@H](CCCNC(=N)N)C(=O)N(C)[C@@H](CC(C)C)C(=O)N[C@@H](CO)C(=O)N[C@@H](Cc1c[nH]cn1)C(=O)N[C@@H](CCCCN)C(=O)NCC(=O)N1[C@H](C(=O)N[C@@H](Cc2ccc(I)cc2)C(=O)N2CCC[C@H]2C(=O)N[C@H](Cc2ccc(-c3ccccc3)cc2)C(=O)O)C[C@@H]2CCCC[C@@H]21)C(=O)O`, the negative-log EC50 (pEC50) on Apelin receptor is 8.40. Also, the fraction unbound in data set [1] turned out to be 0.0189.

As to `CC(C)C[C@@H](C(=O)N[C@@H](CO)C(=O)N[C@@H](Cc1c[nH]cn1)C(=O)N[C@@H](CCCCN)C(=O)NCC(=O)N1[C@H](C(=O)N[C@@H](Cc2ccc(I)cc2)C(=O)N2CCC[C@H]2C(=O)N[C@H](Cc2ccc(-c3ccccc3)cc2)C(=O)O)C[C@@H]2CCCC[C@@H]21)N(C)C(=O)[C@@H](CCCNC(=N)N)NC(=O)[C@@H]1CCCN1C(=O)[C@H](CCCCNC(=N)N)NC(=O)[C@H](CCC(N)=O)NC(=O)[C@@H](CCCNC(=N)N)NC(=O)[C@H](CCCCNC(=N)N)NC(=O)COCCOCCNC(=O)COCCOCCNC(=O)CC[C@H](NC(=O)CCCCCCCCCCCCC(=O)O)C(=O)O`, the pEC50 at Apelin receptor is 7.75. Take `CCCCCCCCCCCCCC(=O)N[C@@H](CCC(=O)NCCOCCOCC(=O)NCCOCCOCC(=O)N[C@@H](CCCCNC(=N)N)C(=O)N[C@H](CCCNC(=N)N)C(=O)N[C@@H](CCC(N)=O)C(=O)N[C@@H](CCCCNC(=N)N)C(=O)N1CCC[C@H]1C(=O)N[C@H](CCCNC(=N)N)C(=O)N(C)[C@@H](CC(C)C)C(=O)N[C@@H](CO)C(=O)N[C@@H](Cc1c[nH]cn1)C(=O)N[C@@H](CCCCN)C(=O)NCC(=O)N1[C@H](C(=O)N[C@@H](Cc2ccc(I)cc2)C(=O)N2CCC[C@H]2C(=O)N[C@H](Cc2ccc(-c3ccccc3)cc2)C(=O)O)C[C@@H]2CCCC[C@@H]21)C(=O)O`: the pEC50 at Apelin receptor was 8.44. Also, in data set [1], the fraction unbound was found to be 0.0023. `CC(C)C[C@@H](C(=O)N[C@@H](CO)C(=O)N[C@@H](Cc1c[nH]cn1)C(=O)N[C@@H](CCCCN)C(=O)NCC(=O)N1[C@H](C(=O)N[C@@H](Cc2ccc(I)cc2)C(=O)N2CCC[C@H]2C(=O)N[C@H](Cc2ccc(-c3ccccc3)cc2)C(=O)O)C[C@@H]2CCCC[C@@H]21)N(C)C(=O)[C@@H](CCCNC(=N)N)NC(=O)[C@@H]1CCCN1C(=O)[C@H](CCCCNC(=N)N)NC(=O)[C@H](CCC(N)=O)NC(=O)[C@@H](CCCNC(=N)N)NC(=O)[C@H](CCCCNC(=N)N)NC(=O)COCCOCCNC(=O)COCCOCCNC(=O)CC[C@H](NC(=O)CCCCCCCCCCCCCCC(=O)O)C(=O)O`: the negative logarithm of the EC50 (pEC50) on Apelin receptor was 7.25.

As for `CCCC(=O)N[C@@H](CCC(=O)NCCOCCOCC(=O)NCCOCCOCC(=O)N[C@@H](CCCCNC(=N)N)C(=O)N[C@H](CCCNC(=N)N)C(=O)N[C@@H](CCC(N)=O)C(=O)N[C@@H](CCCCNC(=N)N)C(=O)N1CCC[C@H]1C(=O)N[C@H](CCCNC(=N)N)C(=O)N(C)[C@@H](CC(C)C)C(=O)N[C@@H](CO)C(=O)N[C@@H](Cc1c[nH]cn1)C(=O)N[C@@H](CCCCN)C(=O)NCC(=O)N1[C@H](C(=O)N[C@@H](Cc2ccc(I)cc2)C(=O)N2CCC[C@H]2C(=O)N[C@H](Cc2ccc(-c3ccccc3)cc2)C(=O)O)C[C@@H]2CCCC[C@@H]21)C(=O)O`, the pEC50 at Apelin receptor was 9.62. Same read-out and setting: to `CC(C)C[C@@H](C(=O)N[C@@H](CO)C(=O)N[C@@H](Cc1c[nH]cn1)C(=O)N[C@@H](CCCCN)C(=O)NCC(=O)N1[C@H](C(=O)N[C@@H](Cc2ccc(I)cc2)C(=O)N2CCC[C@H]2C(=O)N[C@H](Cc2ccc(-c3ccccc3)cc2)C(=O)O)C[C@@H]2CCCC[C@@H]21)N(C)C(=O)[C@@H](CCCNC(=N)N)NC(=O)[C@@H]1CCCN1C(=O)[C@H](CCCCNC(=N)N)NC(=O)[C@H](CCC(N)=O)NC(=O)[C@@H](CCCNC(=N)N)NC(=O)[C@H](CCCCNC(=N)N)NC(=O)COCCOCCNC(=O)COCCOCCNC(=O)CC[C@H](NC(=O)CCC(=O)O)C(=O)O` belongs 9.31. For the compound `CCCCCCCC(=O)N[C@@H](CCC(=O)NCCOCCOCC(=O)NCCOCCOCC(=O)N[C@@H](CCCCNC(=N)N)C(=O)N[C@H](CCCNC(=N)N)C(=O)N[C@@H](CCC(N)=O)C(=O)N[C@@H](CCCCNC(=N)N)C(=O)N1CCC[C@H]1C(=O)N[C@H](CCCNC(=N)N)C(=O)N(C)[C@@H](CC(C)C)C(=O)N[C@@H](CO)C(=O)N[C@@H](Cc1c[nH]cn1)C(=O)N[C@@H](CCCCN)C(=O)NCC(=O)N1[C@H](C(=O)N[C@@H](Cc2ccc(I)cc2)C(=O)N2CCC[C@H]2C(=O)N[C@H](Cc2ccc(-c3ccccc3)cc2)C(=O)O)C[C@@H]2CCCC[C@@H]21)C(=O)O`, the pEC50 on Apelin receptor was 8.52. Besides, the fraction unbound in data set [1] amounted to 0.0027. Regarding `CCCCCCCCCCCC(=O)N[C@@H](CCC(=O)NCCOCCOCC(=O)NCCOCCOCC(=O)N[C@@H](CCCCNC(=N)N)C(=O)N[C@H](CCCNC(=N)N)C(=O)N[C@@H](CCC(N)=O)C(=O)N[C@@H](CCCCNC(=N)N)C(=O)N1CCC[C@H]1C(=O)N[C@H](CCCNC(=N)N)C(=O)N(C)[C@@H](CC(C)C)C(=O)N[C@@H](CO)C(=O)N[C@@H](Cc1c[nH]cn1)C(=O)N[C@@H](CCCCN)C(=O)NCC(=O)N1[C@H](C(=O)N[C@@H](Cc2ccc(I)cc2)C(=O)N2CCC[C@H]2C(=O)N[C@H](Cc2ccc(-c3ccccc3)cc2)C(=O)O)C[C@@H]2CCCC[C@@H]21)C(=O)O`, the pEC50 on Apelin receptor is 8.45. Moreover, in data set [1], the fraction unbound was 0.0013.

Turning to `CC(C)C[C@@H](C(=O)N[C@@H](CO)C(=O)N[C@@H](Cc1c[nH]cn1)C(=O)N[C@@H](CCCCN)C(=O)NCC(=O)N1[C@H](C(=O)N[C@@H](Cc2ccc(I)cc2)C(=O)N2CCC[C@H]2C(=O)N[C@H](Cc2ccc(-c3ccccc3)cc2)C(=O)O)C[C@@H]2CCCC[C@@H]21)N(C)C(=O)[C@@H](CCCNC(=N)N)NC(=O)[C@@H]1CCCN1C(=O)[C@H](CCCCNC(=N)N)NC(=O)[C@H](CCC(N)=O)NC(=O)[C@@H](CCCNC(=N)N)NC(=O)[C@H](CCCCNC(=N)N)NC(=O)COCCOCCNC(=O)COCCOCCNC(=O)CC[C@H](NC(=O)CCCCCCCCC(=O)O)C(=O)O`, at Apelin receptor, the negative logarithm of the EC50 (pEC50) is 8.54. With `CCCCCCCCCC(=O)N[C@@H](CCC(=O)NCCOCCOCC(=O)NCCOCCOCC(=O)N[C@@H](CCCCNC(=N)N)C(=O)N[C@H](CCCNC(=N)N)C(=O)N[C@@H](CCC(N)=O)C(=O)N[C@@H](CCCCNC(=N)N)C(=O)N1CCC[C@H]1C(=O)N[C@H](CCCNC(=N)N)C(=O)N(C)[C@@H](CC(C)C)C(=O)N[C@@H](CO)C(=O)N[C@@H](Cc1c[nH]cn1)C(=O)N[C@@H](CCCCN)C(=O)NCC(=O)N1[C@H](C(=O)N[C@@H](Cc2ccc(I)cc2)C(=O)N2CCC[C@H]2C(=O)N[C@H](Cc2ccc(-c3ccccc3)cc2)C(=O)O)C[C@@H]2CCCC[C@@H]21)C(=O)O`, at Apelin receptor, the pEC50 is 8.87. For the compound `CC(C)C[C@@H](C(=O)N[C@@H](CO)C(=O)N[C@@H](Cc1c[nH]cn1)C(=O)N[C@@H](CCCCN)C(=O)NCC(=O)N1[C@H](C(=O)N[C@@H](Cc2ccc(I)cc2)C(=O)N2CCC[C@H]2C(=O)N[C@H](Cc2ccc(-c3ccccc3)cc2)C(=O)O)C[C@@H]2CCCC[C@@H]21)N(C)C(=O)[C@@H](CCCNC(=N)N)NC(=O)[C@@H]1CCCN1C(=O)[C@H](CCCCNC(=N)N)NC(=O)[C@H](CCC(N)=O)NC(=O)[C@@H](CCCNC(=N)N)NC(=O)[C@H](CCCCNC(=N)N)NC(=O)COCCOCCNC(=O)COCCOCCNC(=O)CC[C@H](NC(=O)CCCCCCCCCCC(=O)O)C(=O)O`, the pEC50 at Apelin receptor was 8.03.

For the compound `CC(=O)N[C@@H](CCC(=O)NCCOCCOCC(=O)NCCOCCOCC(=O)N[C@@H](CCCCNC(=N)N)C(=O)N[C@H](CCCNC(=N)N)C(=O)N[C@@H](CCC(N)=O)C(=O)N[C@@H](CCCCNC(=N)N)C(=O)N1CCC[C@H]1C(=O)N[C@H](CCCNC(=N)N)C(=O)N(C)[C@@H](CC(C)C)C(=O)N[C@@H](CO)C(=O)N[C@@H](Cc1c[nH]cn1)C(=O)N[C@@H](CCCCN)C(=O)NCC(=O)N1[C@H](C(=O)N[C@@H](Cc2ccc(I)cc2)C(=O)N2CCC[C@H]2C(=O)N[C@H](Cc2ccc(-c3ccccc3)cc2)C(=O)O)C[C@@H]2CCCC[C@@H]21)C(=O)O`, the pEC50 at Apelin receptor was 9.04. Further, the remaining at 4 h is 30% in data set [2] and > 90% in data set [3]. The fraction unbound in data set [1] is 0.001.

As to `CC(C)C[C@@H](C(=O)N[C@@H](CO)C(=O)N[C@@H](Cc1c[nH]cn1)C(=O)N[C@@H](CCCCN)C(=O)NCC(=O)N1[C@H](C(=O)N[C@@H](Cc2ccc(I)cc2)C(=O)N2CCC[C@H]2C(=O)N[C@H](Cc2ccc(-c3ccccc3)cc2)C(=O)O)C[C@@H]2CCCC[C@@H]21)N(C)C(=O)[C@@H](CCCNC(=N)N)NC(=O)[C@@H]1CCCN1C(=O)[C@H](CCCCNC(=N)N)NC(=O)[C@H](CCC(N)=O)NC(=O)[C@@H](CCCNC(=N)N)NC(=O)[C@H](CCCCNC(=N)N)NC(=O)COCCOCCNC(=O)COCCOCCNC(=O)CC[C@H](NC(=O)CCCCCCC(=O)O)C(=O)O`, the pEC50 on Apelin receptor is 8.58.
